Assays:
Assay type in all cases: functional
[1] = Growth inhibition of human HCT116 cells incubated for 48 hrs by sulforhodamine B assay; conditions: HCT-116, 48 h
[2] = Growth inhibition of human HL-60(TB) cells incubated for 48 hrs by sulforhodamine B assay; conditions: HL-60, 48 h
[3] = Growth inhibition of human OVCAR8 cells incubated for 48 hrs by sulforhodamine B assay; conditions: OVCAR-8, 48 h
[4] = Growth inhibition of human IGROV1 cells incubated for 48 hrs by sulforhodamine B assay; conditions: IGROV-1, 48 h
[5] = Growth inhibition of human HOP62 cells incubated for 48 hrs by sulforhodamine B assay; conditions: HOP-62, 48 h
[6] = Growth inhibition of human SF539 cells incubated for 48 hrs by sulforhodamine B assay; conditions: SF-539, 48 h
NCI-H226 = assay: Growth inhibition of human NCI-H226 cells incubated for 48 hrs by sulforhodamine B assay; conditions: NCI-H226, 48 h
[7] = Growth inhibition of human UACC257 cells incubated for 48 hrs by sulforhodamine B assay; conditions: UACC-257, 48 h
[8] = Growth inhibition of human RPMI8226 cells incubated for 48 hrs by sulforhodamine B assay; conditions: RPMI-8226, 48 h
[9] = Growth inhibition of human OVCAR5 cells incubated for 48 hrs by sulforhodamine B assay; conditions: OVCAR-5, 48 h
[10] = Growth inhibition of human UACC62 cells incubated for 48 hrs by sulforhodamine B assay; conditions: UACC-62, 48 h
SN12C = assay: Growth inhibition of human SN12C cells incubated for 48 hrs by sulforhodamine B assay
[11] = Growth inhibition of human DU145 cells incubated for 48 hrs by sulforhodamine B assay; conditions: DU-145, 48 h
[12] = Growth inhibition of human Caki1 cells incubated for 48 hrs by sulforhodamine B assay; conditions: CAKI-1, 48 h
NCI-H522 = assay: Growth inhibition of human NCI-H522 cells incubated for 48 hrs by sulforhodamine B assay; conditions: NCI-H522, 48 h
NCI/ADR-RES = assay: Growth inhibition of human NCI/ADR-RES cells incubated for 48 hrs by sulforhodamine B assay
MDA-MB-468 = assay: Growth inhibition of human MDA-MB-468 cells incubated for 48 hrs by sulforhodamine B assay; conditions: MDA-MB-468, 48 h
NCI-H23 = assay: Growth inhibition of human NCI-H23 cells incubated for 48 hrs by sulforhodamine B assay; conditions: NCI-H23, 48 h
EKVX = assay: Growth inhibition of human EKVX cells incubated for 48 hrs by sulforhodamine B assay
MCF7 = assay: Growth inhibition of human MCF7 cells incubated for 48 hrs by sulforhodamine B assay; conditions: MCF7, 48 h
[13] = Growth inhibition of human PC3 cells incubated for 48 hrs by sulforhodamine B assay; conditions: PC-3, 48 h
[14] = Growth inhibition of human LOXIMVI cells incubated for 48 hrs by sulforhodamine B assay; conditions: LOX IMVI
[15] = Growth inhibition of human COLO205 cells incubated for 48 hrs by sulforhodamine B assay; conditions: COLO 205, 48 h
A549 = assay: Growth inhibition of human A549/ATCC cells incubated for 48 hrs by sulforhodamine B assay; conditions: A549, 48 h
[16] = Growth inhibition of human HCC2998 cells incubated for 48 hrs by sulforhodamine B assay; conditions: HCC 2998, 48 h
HT-29 = assay: Growth inhibition of human HT-29 cells incubated for 48 hrs by sulforhodamine B assay; conditions: HT-29, 48 h
A498 = assay: Growth inhibition of human A498 cells incubated for 48 hrs by sulforhodamine B assay; conditions: A498, 48 h
[17] = Growth inhibition of human TK10 cells incubated for 48 hrs by sulforhodamine B assay; conditions: TK-10, 48 h
NCI-H460 = assay: Growth inhibition of human NCI-H460 cells incubated for 48 hrs by sulforhodamine B assay; conditions: NCI-H460, 48 h
Malme-3M = assay: Growth inhibition of human MALME-3M cells incubated for 48 hrs by sulforhodamine B assay
SK-MEL-28 = assay: Growth inhibition of human SK-MEL-28 cells incubated for 48 hrs by sulforhodamine B assay; conditions: SK-MEL-28, 48 h
[18] = Growth inhibition of human RXF393 cells incubated for 48 hrs by sulforhodamine B assay; conditions: RXF 393, 48 h
SR = assay: Growth inhibition of human SR cells incubated for 48 hrs by sulforhodamine B assay
[19] = read-out: pLC50 (the source's name) (converted)

Compound: O=c1ccc2nc(C(F)(F)F)nn(-c3ccccc3)c-2c1
- GI50 [1]: 1.62 µM
- CC50 [1, 19]: 6.17 µM
- TGI ([1]; read-out: pTGI (converted)): 3.16 µM
- GI50 [2]: 1.2 µM
- CC50 [2, 19]: > 100 µM
- TGI ([2]; read-out: pTGI (converted)): 4.27 µM
- GI50 [3]: 4.17 µM
- CC50 [3, 19]: > 100 µM
- TGI ([3]; read-out: pTGI (converted)): 33.9 µM
- GI50 [4]: 12 µM
- CC50 [4, 19]: 55 µM
- TGI ([4]; read-out: pTGI (converted)): 25.7 µM
- GI50 [5]: 7.94 µM
- CC50 [5, 19]: 83.2 µM
- TGI ([5]; read-out: pTGI (converted)): 27.5 µM
- GI50 [6]: 15.8 µM
- CC50 [6, 19]: 55 µM
- TGI ([6]; read-out: pTGI (converted)): 29.5 µM
- GI50 (NCI-H226): 13.2 µM
- CC50 (NCI-H226; [19]): 70.8 µM
- TGI (NCI-H226; read-out: pTGI (converted)): 30.2 µM
- GI50 [7]: 1.91 µM
- CC50 [7, 19]: 8.51 µM
- TGI ([7]; read-out: pTGI (converted)): 4.07 µM
- GI50 [8]: 4.79 µM
- CC50 [8, 19]: > 100 µM
- TGI ([8]; read-out: pTGI (converted)): 77.6 µM
- GI50 [9]: 15.5 µM
- CC50 [9, 19]: 55 µM
- TGI ([9]; read-out: pTGI (converted)): 28.8 µM
- GI50 [10]: 5.13 µM
- CC50 [10, 19]: 43.7 µM
- TGI ([10]; read-out: pTGI (converted)): 17.8 µM
- GI50 (SN12C): 7.24 µM
- CC50 (SN12C; [19]): > 100 µM
- TGI (SN12C; read-out: pTGI (converted)): 57.5 µM
- GI50 [11]: 1.78 µM
- CC50 [11, 19]: 5.62 µM
- TGI ([11]; read-out: pTGI (converted)): 3.16 µM
- GI50 [12]: 1.48 µM
- CC50 [12, 19]: 5.37 µM
- TGI ([12]; read-out: pTGI (converted)): 2.82 µM
- GI50 (NCI-H522): 1.51 µM
- CC50 (NCI-H522; [19]): 6.03 µM
- TGI (NCI-H522; read-out: pTGI (converted)): 3.02 µM
- GI50 (NCI/ADR-RES): 53.7 µM
- CC50 (NCI/ADR-RES; [19]): > 100 µM
- TGI (NCI/ADR-RES; read-out: pTGI (converted)): 64.6 µM
- GI50 (MDA-MB-468): 1.07 µM
- CC50 (MDA-MB-468; [19]): 8.32 µM
- TGI (MDA-MB-468; read-out: pTGI (converted)): 2.95 µM
- GI50 (NCI-H23): 5.89 µM
- CC50 (NCI-H23; [19]): 66.1 µM
- TGI (NCI-H23; read-out: pTGI (converted)): 22.4 µM
- GI50 (EKVX): 26.9 µM
- CC50 (EKVX; [19]): 53.7 µM
- TGI (EKVX; read-out: pTGI (converted)): 26.9 µM
- GI50 (MCF7): 0.49 µM
- CC50 (MCF7; [19]): > 100 µM
- TGI (MCF7; read-out: pTGI (converted)): 4.07 µM
- GI50 [13]: 10.7 µM
- CC50 [13, 19]: 52.5 µM
- TGI ([13]; read-out: pTGI (converted)): 23.4 µM
- GI50 [14]: 1.58 µM
- CC50 [14, 19]: 6.61 µM
- TGI ([14]; read-out: pTGI (converted)): 3.24 µM
- GI50 [15]: 2.29 µM
- CC50 [15, 19]: > 100 µM
- TGI ([15]; read-out: pTGI (converted)): 5.75 µM
- GI50 (A549): 19.5 µM
- CC50 (A549; [19]): 79.4 µM
- TGI (A549; read-out: pTGI (converted)): 38.9 µM
- GI50 [16]: 15.5 µM
- CC50 [16, 19]: 57.5 µM
- TGI ([16]; read-out: pTGI (converted)): 29.5 µM
- GI50 (HT-29): 2.63 µM
- CC50 (HT-29; [19]): > 100 µM
- GI50 (A498): 14.1 µM
- CC50 (A498; [19]): 52.5 µM
- TGI (A498; read-out: pTGI (converted)): 26.9 µM
- GI50 [17]: 1.62 µM
- CC50 [17, 19]: 5.89 µM
- TGI ([17]; read-out: pTGI (converted)): 3.09 µM
- GI50 (NCI-H460): 17.8 µM
- CC50 (NCI-H460; [19]): 74.1 µM
- TGI (NCI-H460; read-out: pTGI (converted)): 36.3 µM
- GI50 (Malme-3M): 1.82 µM
- CC50 (Malme-3M; [19]): 6.03 µM
- TGI (Malme-3M; read-out: pTGI (converted)): 3.31 µM
- GI50 (SK-MEL-28): 1.7 µM
- CC50 (SK-MEL-28; [19]): 6.31 µM
- TGI (SK-MEL-28; read-out: pTGI (converted)): 3.24 µM
- GI50 [18]: 1.45 µM
- CC50 [18, 19]: 5.37 µM
- TGI ([18]; read-out: pTGI (converted)): 2.82 µM
- GI50 (SR): 1 µM
- CC50 (SR; [19]): > 100 µM
- TGI (SR; read-out: pTGI): > 100 µM

From ChEMBL document CHEMBL3813672, “Discovery of anti-cancer activity for benzo[1,2,4]triazin-7-ones: Very strong correlation to pleurotin and thioredoxin reductase inhibition” (Bioorg Med Chem, 2016)
